From PMC7830597, “Derivatives of Tenuazonic Acid as Potential New Multi-Target Anti-Alzheimer’s Disease Agents” (Biomolecules, 2021)

Tests used:
Aβ1-42 [1] = biological target: T1, Aβ1-42 (Homo sapiens, UniProt P05067); assay: Inhibition of Cu2+-induced Aβ1-42 aggregation, thioflavin T fluorescence; assay type: biochemical; conditions: inhibitor 40 µM, copper 40 µM, read-out: Inhib. Aβ Aggreg. Cu2+-Induced
T1 construct: Amyloid β peptide (Aβ1-42) was purchased from GeneCust as a lyophilised powder; purchased GeneCust
T1 sequence (P05067 672-713 limits assumed): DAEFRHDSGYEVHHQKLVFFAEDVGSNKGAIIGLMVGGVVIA
Description: The anti-amyloidogenic activity of all the compounds was also evaluated in vitro, in the absence and in presence of Cu(II), by measuring the fluorescence emission of Thioflavin T (ThT). […] The Aβ self-aggregation inhibitory activity shown by all compounds is higher than that of parent compound TA, with the exception of compound 2 (probably due to solubility issues at the experimental conditions of the assays). The fact that the reference value previously reported by us for TA (50 ± 8%) was obtained for quite different conditions, including a much higher inhibitor concentration (100 μM instead of 40 μM) is noteworthy. […] This may be due to different electronic contributions between the ketone and the ester functions. Therefore, the ester derivatives seem to be better chelators compared to TA.
(§1) The spectrofluorimetric method, based on the fluorescence emission of thioflavin T (ThT), was used to study the Aβ1-42 aggregation inhibition. Firstly, Aβ1-42 was dissolved in HFIP (1,1,1,3,3,3-Hexafluoro-2-propanol) and kept overnight at room temperature in order to obtain a dry film. Then, the film was re-dissolved in CH3CN-Na2CO3 (300μM)/NaOH (250μM) (48.3/48.3/3.4 mL v/v/v) and then phosphate buffer (pH = 8) was added. The ligand solutions were prepared with MeOH (1mg/mL) and further with phosphate buffer. For the inhibition studies of copper-induced Aβ aggregation, a solution of CuCl2 240 μM was used. As a control, a solution of 30 μL of phosphate buffer and 30 μL of Aβ1-42 was used to observe the aggregation without any inhibition, while the ligand assay solutions were composed of 20 μL of phosphate buffer, 30 μL of Aβ1-42 and 10 μL of ligand. The Cu-induced aggregation studies were similarly conducted, adding 10 μL of CuCl2 to induce the fibril aggregation. Each experiment was composed of an assay and a blank sample, where the blank sample lacks Aβ1-42, to monitor the effect of the compounds on the fluorescence emission. The samples were left to incubate in a CERTOMAT WR water bath for 24 h at 37 °C with shaking. After 24 h, a Glycine-NaOH buffer (pH = 8.5) containing ThT were added to each sample in a microplate. The fluorescence signal was monitored at 446 nm (λexc) and 486 nm (λem) with a Varian Cary Eclipse fluorimeter. Amyloid β peptide (Aβ1-42) was purchased from GeneCust as a lyophilised powder and stored at −20 °C [12, 13, 14].

Aβ1-42 [2] = biological target: T1, Aβ1-42; assay: biochemical; conditions: Aβ1-42; inhibitor 40 µM; SEM < 10%; read-out: Inhib. Aβ Aggreg. Self-Induced
Description: The anti-amyloidogenic activity of all the compounds was also evaluated in vitro, in the absence and in presence of Cu(II), by measuring the fluorescence emission of Thioflavin T (ThT).
as §1, with “Then, the film was re-dissolved in CH3CN-Na2CO3 (300μM)/NaOH (250μM) (48.3/48.3/3.4 mL v/v/v) and then phosphate buffer (pH = 8) was added.” left out, “For the inhibition studies of copper-induced Aβ aggregation, a solution of CuCl2 240 μM was used.” left out

Solubility in water = assay type: physicochemical

## CCOC(=O)C1=C(O)C(Cc2ccccc2)NC1=O (centres unmarked) [Compound 2, Ethyl 5-benzyl-4-hydroxy-2-oxo-2,5-dihydro-1H-pyrrole-3-carboxylate]
Aβ1-42 [1]
  inhibition at 40 µM: 28.2%
Aβ1-42 [2]
  inhibition at 40 µM: 12.4%

## CCOC(=O)C1=C(O)C(C(C)C)NC1=O (centres unmarked) [Compound 1, Ethyl 4-hydroxy-5-isopropyl-2-oxo-2,5-dihydro-1H-pyrrole-3-carboxylate]
Aβ1-42 [1]
  inhibition at 40 µM: 36.6%
Solubility in water
  solubility in water: insoluble in water
Aβ1-42 [2]
  inhibition at 40 µM: 32.9%
